Assay results: PubChem BioAssay (NCI)
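Results reflect a 48-hour exposure of cells in 96-well plates to compound at five concentrations. GI50 = concentration required for 50% inhibition of growth. TGI is the concentration that stops growth completely.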

Tests used:
Assay in all cases: DTP human tumour cell line panel, 48 h
MALME-3M melanoma = tested on: MALME-3M melanoma
NCI/ADR-RES ovarian = tested on: NCI/ADR-RES ovarian
MDA-MB-435 = tested on: MDA-MB-435
HCT-15 colon = tested on: HCT-15 colon
HS 578T breast = tested on: HS 578T breast
HT29 colon = tested on: HT29 colon
OVCAR-4 ovarian = tested on: OVCAR-4 ovarian
UACC-257 melanoma = tested on: UACC-257 melanoma
BT-549 breast = tested on: BT-549 breast
OVCAR-8 ovarian = tested on: OVCAR-8 ovarian
UACC-62 melanoma = tested on: UACC-62 melanoma
DU-145 prostate = tested on: DU-145 prostate
NCI-H23 lung = tested on: NCI-H23 lung
786-0 renal = tested on: 786-0 renal
HL-60(TB) leukemia = tested on: HL-60(TB) leukemia
A549 NSCLC = tested on: A549 NSCLC
A498 renal = tested on: A498 renal
T-47D breast = tested on: T-47D breast
SW-620 colon = tested on: SW-620 colon
EKVX NSCLC = tested on: EKVX NSCLC
HCT-116 colon = tested on: HCT-116 colon
SF-539 CNS = tested on: SF-539 CNS
RXF 393 renal = tested on: RXF 393 renal
NCI-H226 lung = tested on: NCI-H226 lung
KM12 colon = tested on: KM12 colon
HOP-62 NSCLC = tested on: HOP-62 NSCLC
UO-31 renal = tested on: UO-31 renal
MOLT-4 leukemia = tested on: MOLT-4 leukemia
PC-3 prostate = tested on: PC-3 prostate
TK-10 renal = tested on: TK-10 renal
SN12C renal = tested on: SN12C renal
LOX IMVI melanoma = tested on: LOX IMVI melanoma
U251 CNS = tested on: U251 CNS
MDA-MB-231 breast = tested on: MDA-MB-231 breast
SF-268 CNS = tested on: SF-268 CNS
NCI-H460 lung = tested on: NCI-H460 lung
COLO 205 colon = tested on: COLO 205 colon
M14 melanoma = tested on: M14 melanoma
SNB-19 CNS = tested on: SNB-19 CNS
SR leukemia = tested on: SR leukemia
K-562 leukemia = tested on: K-562 leukemia
RPMI-8226 leukemia = tested on: RPMI-8226 leukemia
SF-295 CNS = tested on: SF-295 CNS
SNB-75 CNS = tested on: SNB-75 CNS
SK-MEL-28 melanoma = tested on: SK-MEL-28 melanoma
CAKI-1 renal = tested on: CAKI-1 renal
OVCAR-5 ovarian = tested on: OVCAR-5 ovarian
ACHN renal = tested on: ACHN renal
HCC-2998 colon = tested on: HCC-2998 colon
SK-OV-3 ovarian = tested on: SK-OV-3 ovarian
HOP-92 NSCLC = tested on: HOP-92 NSCLC
SK-MEL-2 melanoma = tested on: SK-MEL-2 melanoma
OVCAR-3 ovarian = tested on: OVCAR-3 ovarian
CCRF-CEM leukemia = tested on: CCRF-CEM leukemia
NCI-H522 lung = tested on: NCI-H522 lung

For `Cc1ccc(S(=O)(=O)c2nc(-c3ccccc3)oc2S(C)(=O)=O)cc1`, the GI50 (MALME-3M melanoma) was 1.9 µM, the TGI (MALME-3M melanoma) was 3.68 µM and the GI50 (NCI/ADR-RES ovarian) was 7.43 µM. It also gave a TGI (NCI/ADR-RES ovarian) of 45 µM, a GI50 (MDA-MB-435) of 2.11 µM and a TGI (MDA-MB-435) of 4.58 µM. The GI50 (HCT-15 colon) was 1.7 µM, the TGI (HCT-15 colon) was 3.31 µM and the GI50 (HS 578T breast) was 10.1 µM. For the same compound, the TGI (HS 578T breast) was 43.8 µM, the GI50 (HT29 colon) was 2.81 µM and the TGI (HT29 colon) was 6.6 µM. It also gave a GI50 (OVCAR-4 ovarian) of 1.92 µM, a TGI (OVCAR-4 ovarian) of 3.72 µM and a GI50 (UACC-257 melanoma) of 3.01 µM. It also gave a TGI (UACC-257 melanoma) of 12.2 µM, a GI50 (BT-549 breast) of 1.85 µM and a TGI (BT-549 breast) of 3.72 µM. It also gave a GI50 (OVCAR-8 ovarian) of 1.96 µM, a TGI (OVCAR-8 ovarian) of 3.8 µM and a GI50 (UACC-62 melanoma) of 1.89 µM. The TGI (UACC-62 melanoma) was 3.98 µM, the GI50 (DU-145 prostate) was 1.71 µM and the TGI (DU-145 prostate) was 3.15 µM. For the same compound, the GI50 (NCI-H23 lung) was 6.73 µM, the TGI (NCI-H23 lung) was 22.6 µM and the GI50 (786-0 renal) was 1.66 µM. The TGI (786-0 renal) was 3.19 µM, the GI50 (HL-60(TB) leukemia) was 2 µM and the TGI (HL-60(TB) leukemia) was 6.43 µM. For the same compound, the GI50 (A549 NSCLC) was 14.2 µM, the TGI (A549 NSCLC) was 27.3 µM and the GI50 (A498 renal) was 15.4 µM. It also gave a TGI (A498 renal) of 28.7 µM, a GI50 (T-47D breast) of 1.87 µM and a TGI (T-47D breast) of 3.93 µM. For the same compound, the GI50 (SW-620 colon) was 2.05 µM, the TGI (SW-620 colon) was 4.21 µM and the GI50 (EKVX NSCLC) was 6.08 µM. For the same compound, the TGI (EKVX NSCLC) was 19.3 µM, the GI50 (HCT-116 colon) was 1.78 µM and the TGI (HCT-116 colon) was 3.25 µM. It also gave a GI50 (SF-539 CNS) of 1.56 µM, a TGI (SF-539 CNS) of 3.02 µM and a GI50 (RXF 393 renal) of 1.69 µM. The TGI (RXF 393 renal) was 3.13 µM, the GI50 (NCI-H226 lung) was 3.31 µM and the TGI (NCI-H226 lung) was 15 µM. For the same compound, the GI50 (KM12 colon) was 13 µM, the TGI (KM12 colon) was 27.2 µM and the GI50 (HOP-62 NSCLC) was 13.3 µM. The TGI (HOP-62 NSCLC) was 26.1 µM, the GI50 (UO-31 renal) was 1.48 µM and the TGI (UO-31 renal) was 2.81 µM. The GI50 (MOLT-4 leukemia) was 2.27 µM, the TGI (MOLT-4 leukemia) was 5.87 µM and the GI50 (PC-3 prostate) was 10.4 µM. For the same compound, the TGI (PC-3 prostate) was 23.1 µM, the GI50 (TK-10 renal) was 1.7 µM and the TGI (TK-10 renal) was 3.1 µM. The GI50 (SN12C renal) was 1.92 µM, the TGI (SN12C renal) was 3.95 µM and the GI50 (LOX IMVI melanoma) was 1.59 µM. For the same compound, the TGI (LOX IMVI melanoma) was 2.99 µM, the GI50 (U251 CNS) was 5.88 µM and the TGI (U251 CNS) was 18.3 µM. The GI50 (MDA-MB-231 breast) was 1.87 µM, the TGI (MDA-MB-231 breast) was 3.76 µM and the GI50 (SF-268 CNS) was 10.6 µM. It also gave a TGI (SF-268 CNS) of 24.4 µM, a GI50 (NCI-H460 lung) of 13.3 µM and a TGI (NCI-H460 lung) of 27.8 µM. For the same compound, the GI50 (COLO 205 colon) was 1.7 µM, the TGI (COLO 205 colon) was 3.21 µM and the GI50 (M14 melanoma) was 1.74 µM. The TGI (M14 melanoma) was 3.63 µM, the GI50 (SNB-19 CNS) was 11.2 µM and the TGI (SNB-19 CNS) was 23.2 µM. It also gave a GI50 (SR leukemia) of 2 µM, a TGI (SR leukemia) of 7.69 µM and a GI50 (K-562 leukemia) of 1.59 µM. The TGI (K-562 leukemia) was 4.3 µM, the GI50 (RPMI-8226 leukemia) was 2.33 µM and the TGI (RPMI-8226 leukemia) was 5.88 µM. For the same compound, the GI50 (SF-295 CNS) was 12.2 µM, the TGI (SF-295 CNS) was 24.6 µM and the GI50 (SNB-75 CNS) was 6.39 µM. It also gave a TGI (SNB-75 CNS) of 18 µM, a GI50 (SK-MEL-28 melanoma) of 1.92 µM and a TGI (SK-MEL-28 melanoma) of 3.77 µM. The GI50 (CAKI-1 renal) was 1.8 µM, the TGI (CAKI-1 renal) was 3.21 µM and the GI50 (OVCAR-5 ovarian) was 2.12 µM. The TGI (OVCAR-5 ovarian) was 5.28 µM, the GI50 (ACHN renal) was 1.76 µM and the TGI (ACHN renal) was 3.13 µM. For the same compound, the GI50 (HCC-2998 colon) was 17.9 µM, the TGI (HCC-2998 colon) was 32.2 µM and the GI50 (SK-OV-3 ovarian) was 15.9 µM. The TGI (SK-OV-3 ovarian) was 29.3 µM, the GI50 (HOP-92 NSCLC) was 1.84 µM and the TGI (HOP-92 NSCLC) was 3.48 µM. For the same compound, the GI50 (SK-MEL-2 melanoma) was 3.4 µM, the TGI (SK-MEL-2 melanoma) was 14.1 µM and the GI50 (OVCAR-3 ovarian) was 1.86 µM. The TGI (OVCAR-3 ovarian) was 3.35 µM, the GI50 (CCRF-CEM leukemia) was 2.83 µM and the TGI (CCRF-CEM leukemia) was 8.16 µM. For the same compound, the GI50 (NCI-H522 lung) was 1.52 µM and the TGI (NCI-H522 lung) was 3.3 µM.
